{
  "source": "patent US11008551B2",
  "about": "“Method to increase the infectivity of virus particles” (The Trustees of Princeton University, priority 2011, dated 2021)",
  "key": {"HCMV [1]": {"tested_on": "HCMV", "test": "Cholesterol supplementation of serum-starved antibody-treated MRC5 cells, cell-free virus by TCID50", "type": "cell-based, human cytomegalovirus (HCMV)", "conditions": "serum-starved MRC5 cells also treated with LRP1-specific antibody, 0.1 PFU/cell, 96 hpi", "protocol": "(§1) In a second experiment, cells were serum starved for 48 hours then treated with indicated antibodies. 1 hour post antibody treatment, serum-starved, confluent MRC5 cells were treated with various concentrations of cholesterol (+fatty acid-free BSA carrier) for 1 hour then infected at a multiplicity of 0.1 PFU/cell. At 96 hpi, released virus was used to infect new cells. “N” indicates no added cholesterol. Cell-free virus was quantified by a TCID50 assay. Data represents the mean and standard deviation from three independent experiments with three replicates each."}, "[2]": {"tested_on": "HCMV strain AD169 virions", "test": "Infectivity of gradient purified virions treated with MCβD and/or cholesterol", "type": "cell-based, human cytomegalovirus (HCMV)", "protocol": "Due to the ability to sequester cholesterol in its hydrophobic pocket, methyl-ß-cyclodextrin (MCβD) removes cholesterol from membranes (Christian, Haynes et al. 1997). Thus, in order to directly test the role of virion envelope cholesterol in HCMV infection, purified virions were treated with various concentrations of MCβD to deplete cholesterol.\n(§2) Gradient purified HCMV strain AD169 virions were either mock treated or treated with increasing concentrations of MCβD for 30 min at 37° C. MCβD (50 mM) treated virus was incubated in varying concentrations of cholesterol for 30 min at 37° C. Virus (no MCβD treatment) was incubated in varying concentrations of cholesterol for 30 min at 37° C. In all experiments, infectivity (FIG. 5, left panels) and cholesterol content (FIG. 5, right panels) were determined for the treated samples. Infectivity of untreated virus was set to 100%. Virus cholesterol content was determined using the amplexred (Invitrogen) specrofluorometric assay.\n(§3) To determine whether the effect of MCβD could be rescued (and is thus reversible), and moreover, to determine if the loss of infectivity was due to cholesterol depletion, exogenous cholesterol was used to replenish the envelopes of MCβD-treated virions by incubating the virus particles with various amounts of free cholesterol.\n(§4) To determine if virus infectivity could be increased by increasing virion cholesterol content alone, gradient purified HCMV virions were incubated with increasing concentrations of cholesterol then gradient purified for a second time."}, "[3]": {"tested_on": "HCMV strain AD169 virions", "test": "Virus cholesterol content after MCβD and/or cholesterol treatment, amplex red assay", "parameters": "species or system human cytomegalovirus (HCMV)", "protocol": "as §2\nTo confirm that MCβD treatment depleted virus of envelope cholesterol, the cholesterol content of MCβD-depleted virus was determined (FIG. 5A, right).\nas §3, §4"}, "HCMV [4]": {"tested_on": "HCMV", "test": "Mevastatin treatment of infected MRC5 cells, released virus quantified by TCID50", "type": "cell-based, human cytomegalovirus (HCMV)", "protocol": "In a first experiment, MRC5 cells were left untreated, treated with Mevastatin or mock treated. At 90 minutes post Mevastatin treatment, cells were treated with antibody to LRP1 or tubulin or left untreated. 1 hour post Mevastatin treatment, cells were infected at a multiplicity of 0.1 PFU/cell. At 96 hpi, released virus was used to infect new cells.\nas §1"}, "HCMV strain AD169": {"tested_on": "HCMV strain AD169", "test": "Acid bypass assay of MCβD-treated virus, IE1 expression at 24 hpi", "type": "cell-based, human cytomegalovirus (HCMV)", "conditions": "MCβD 50 mM, 3 pfu/cell, pH 4.7 vs 7.4, 24 hpi", "protocol": "It is known that infection of host cells by enveloped viruses relies on the fusion of the viral envelope with either an endosomal membrane or the plasma membrane of the cell. Therefore, experiments were designed to test whether infectivity of MCβD-treated virus can be restored by using an “acid bypass assay” (Mercer and Helenius 2008) to circumvent the normal membrane fusion process during virus entry.\nCells were infected with MCβD (50 mM)-treated or mock-treated HCMV strain AD169 at a multiplicity of 3 pfu/cell, allowed to sit at 4° C. for 30 min to allow virus binding, then treated with buffer at a neutral (7.4) or acidic (4.7) pH for 3 min, washed with PBS, and examined for IE1 expression 24 hours later.\nHCMV particles, either treated with MCβD or left untreated, were bound to cells at 4° C., then incubated in a low pH buffer (pH 4.7) to artificially induce the fusion event, thus allowing fusion-deficient viruses to enter the cell and replicate. A neutral pH buffer was used as a control. Virus replication after acid bypass was visualized by IE1 expression at 24 hpi (FIG. 6)."}, "[5]": {"conditions": "MCβD (50 mM) treated virus incubated with varying cholesterol, 30 min at 37° C."}, "[6]": {"conditions": "virus without MCβD treatment incubated with increasing cholesterol"}, "[7]": {"conditions": "virions treated with increasing MCβD, 30 min at 37° C."}},
  "data": [
    {"compound": "CC(C)CCC[C@@H](C)[C@H]1CC[C@H]2[C@@H]3CC=C4C[C@@H](O)CC[C@]4(C)[C@H]3CC[C@]12C", "note": "[cholesterol]", "values": [
      {"measurement": "production of HCMV infectivity", "setting": "HCMV [1]", "value": "substantially enhanced"},
      {"measurement": "HCMV infectivity of MCβD-treated virions", "setting": "[2]; [5]", "value": "partially restored"},
      {"measurement": "virus infectivity", "setting": "[2]; [6]", "value": "increased"},
      {"measurement": "envelope cholesterol content of MCβD-treated virions", "setting": "[3]; [5]", "value": "partially restored"},
      {"measurement": "overall cholesterol content of virus", "setting": "[3]; [6]", "value": "increased"}
    ]},
    {"compound": "CC[C@H](C)C(=O)O[C@H]1CCC=C2C=C[C@H](C)[C@H](CC[C@@H]3C[C@@H](O)CC(=O)O3)[C@H]21", "note": "[Mevastatin]", "values": [
      {"measurement": "reversal of the increased infectivity caused by inhibition of LRP1 activity", "setting": "HCMV [4]; MRC5 cells also treated with LRP1 antibody", "value": "to a limited extent"},
      {"measurement": "production of infectivity", "setting": "HCMV [4]; MRC5 cells, 0.1 PFU/cell, 96 hpi, Mevastatin", "value": "inhibited the production of infectivity in a dose-dependent manner"}
    ]},
    {"compound": "methyl-ß-cyclodextrin [MCβD]", "values": [
      {"measurement": "HCMV infectivity", "setting": "[2]; [7]", "value": "dose-dependent inhibition"},
      {"measurement": "depletion of virion cholesterol", "setting": "[3]; 50 mM MCβD", "value": 90, "unit": "%"},
      {"measurement": "virus cholesterol content", "setting": "[3]; [7]", "value": "dose-dependent decrease"},
      {"measurement": "ability of treated virus to enter the cell and express IE1 protein after acid bypass", "setting": "HCMV strain AD169", "value": "dramatic difference"}
    ]}
  ]
}
